Measurements taken from the supplement of paper PMC10132981, “Formate overflow drives toxic folate trapping in MTHFD1 inhibited cancer cells” (Nature Metabolism, 2023).
± gives the standard deviation of the averaged measurements.

Legend:
[1] = system: SW620; assay: cell viability relative to lowest-dose well (resazurin, 96 h); higher = more viable; settings: RPMI + 10% FBS
Procedure, shortened: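 In 384-well plates, 50 µl RPMI with 10% FBS plus a metabolite supplement received 500 HCT116 or 1,000 SW620 cells per well. Dilution series of compounds, taken from 10 mM DMSO stocks, were added and the plates kept 96 h at 37 °C, 5% CO2. Viability, reported as percent of the lowest-dose well across independent replicate cultures, was measured as resazurin-to-resorufin conversion by fluorescence at 595 nm. Viability was read by resazurin-to-resorufin conversion and normalised to the lowest-dose vehicle well (=100%).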

[2] = system: HCT116; assay: EC50 for viability (resazurin, 96 h); settings: RPMI+GlutaMAX (10% FBS, 1% P/S)
[3] = system: SW620 MTHFD2-/-; assay: EC50 for viability (resazurin, 96 h); settings: RPMI+GlutaMAX (5% dFBS, 1% P/S)
[4] = system: SW620 WT; assay: EC50 for viability (resazurin, 96 h); settings: RPMI+GlutaMAX (5% dFBS, 1% P/S)
[5] = system: SW620; assay: EC50 for viability (resazurin, 96 h)
[6] = system: SW620 MTHFD2 -/-; assay: EC50 for viability (resazurin, 96 h); settings: RPMI+GlutaMAX (5% dFBS, 1% P/S)

CN(Cc1cnc2nc(N)nc(N)c2n1)c1ccc(C(=O)N[C@@H](CCC(=O)O)C(=O)O)cc1 [methotrexate]
Settings | EC50 for viability [µM] | cell viability [%]
[1], 0.001 µM, metabolite supplement: 50uM thymidine | – | 96.3 ± 4
[1], 0.001 µM, metabolite supplement: 50uM thymidine + 250uM hypoxanthine | – | 95.7 ± 5.2
[1], 0.001 µM, metabolite supplement: 250uM hypoxanthine | – | 98.8 ± 6.7
[1], 0.001 µM, metabolite supplement: vehicle | – | 98 ± 2.8
[1], 0.00278 µM, metabolite supplement: 50uM thymidine | – | 95 ± 7.7
[1], 0.00278 µM, metabolite supplement: 50uM thymidine + 250uM hypoxanthine | – | 94.5 ± 5.3
[1], 0.00278 µM, metabolite supplement: 250uM hypoxanthine | – | 99.5 ± 3.2
[1], 0.00278 µM, metabolite supplement: vehicle | – | 96.3 ± 3.9
[1], 0.00774 µM, metabolite supplement: 50uM thymidine | – | 76.7 ± 16
[1], 0.00774 µM, metabolite supplement: 50uM thymidine + 250uM hypoxanthine | – | 93.4 ± 7.8
[1], 0.00774 µM, metabolite supplement: 250uM hypoxanthine | – | 96.2 ± 4.7
[1], 0.00774 µM, metabolite supplement: vehicle | – | 79.3 ± 6.6
[1], 0.0215 µM, metabolite supplement: 50uM thymidine | – | 42.2 ± 12
[1], 0.0215 µM, metabolite supplement: 50uM thymidine + 250uM hypoxanthine | – | 97.4 ± 6.6
[1], 0.0215 µM, metabolite supplement: 250uM hypoxanthine | – | 75.1 ± 2.8
[1], 0.0215 µM, metabolite supplement: vehicle | – | 60.4 ± 4.5
[1], 0.0599 µM, metabolite supplement: 50uM thymidine | – | 34.3 ± 11
[1], 0.0599 µM, metabolite supplement: 50uM thymidine + 250uM hypoxanthine | – | 90.2 ± 11
[1], 0.0599 µM, metabolite supplement: 250uM hypoxanthine | – | 32.8 ± 7.5
[1], 0.0599 µM, metabolite supplement: vehicle | – | 33.7 ± 6.8
[1], 0.167 µM, metabolite supplement: 50uM thymidine | – | 34.8 ± 9.7
[1], 0.167 µM, metabolite supplement: 50uM thymidine + 250uM hypoxanthine | – | 96.4 ± 8.1
[1], 0.167 µM, metabolite supplement: 250uM hypoxanthine | – | 28 ± 2.8
[1], 0.167 µM, metabolite supplement: vehicle | – | 26.9 ± 1.6
[1], 0.464 µM, metabolite supplement: 50uM thymidine | – | 33.1 ± 11
[1], 0.464 µM, metabolite supplement: 50uM thymidine + 250uM hypoxanthine | – | 94.7 ± 8.8
[1], 0.464 µM, metabolite supplement: 250uM hypoxanthine | – | 28.3 ± 3.3
[1], 0.464 µM, metabolite supplement: vehicle | – | 27 ± 1.2
[1], 1.29 µM, metabolite supplement: 50uM thymidine | – | 32.6 ± 10
[1], 1.29 µM, metabolite supplement: 50uM thymidine + 250uM hypoxanthine | – | 87.5 ± 18
[1], 1.29 µM, metabolite supplement: 250uM hypoxanthine | – | 28.4 ± 2.6
[1], 1.29 µM, metabolite supplement: vehicle | – | 26.4 ± 1.5
[1], 3.59 µM, metabolite supplement: 50uM thymidine | – | 30.9 ± 11
[1], 3.59 µM, metabolite supplement: 50uM thymidine + 250uM hypoxanthine | – | 83.6 ± 16
[1], 3.59 µM, metabolite supplement: 250uM hypoxanthine | – | 29.6 ± 0.61
[1], 3.59 µM, metabolite supplement: vehicle | – | 28.3 ± 1.5
[1], 10 µM, metabolite supplement: 50uM thymidine | – | 30.5 ± 11
[1], 10 µM, metabolite supplement: 50uM thymidine + 250uM hypoxanthine | – | 83.6 ± 16
[1], 10 µM, metabolite supplement: 250uM hypoxanthine | – | 29.5 ± 1.9
[1], 10 µM, metabolite supplement: vehicle | – | 29.3 ± 1.6
[5], HPLM (5% dFBS, 1% P/S), metabolite supplement: Vehicle | 0.027 | –
[5], RPMI+GlutaMAX (5% dFBS, 1% P/S), metabolite supplement: 50 µM Hypoxanthine | 0.0218 ± 0.0026 | –
[5], RPMI+GlutaMAX (5% dFBS, 1% P/S), metabolite supplement: Vehicle | 0.0087 ± 0.0025 | –
[5], RPMI+GlutaMAX (10% FBS, 1% P/S), metabolite supplement: Folic acid | 0.0963 | –
[5], RPMI+GlutaMAX (10% FBS, 1% P/S), metabolite supplement: Folinic acid | 0.366 | –
[5], RPMI+GlutaMAX (10% FBS, 1% P/S), metabolite supplement: Hypoxanthine | 0.0262 | –
[5], RPMI+GlutaMAX (10% FBS, 1% P/S), metabolite supplement: Thymidine | 0.0124 ± 0.0021 | –
[5], RPMI+GlutaMAX (10% FBS, 1% P/S), metabolite supplement: Thymidine + Folic acid | 0.0818 | –
[5], RPMI+GlutaMAX (10% FBS, 1% P/S), metabolite supplement: Thymidine + Folinic acid | 0.388 | –
[5], RPMI+GlutaMAX (10% FBS, 1% P/S), metabolite supplement: Vehicle | 0.0116 ± 0.0043 | –

Settings | EC50 for viability [µM]
[2], metabolite supplement: Hypoxanthine | 0.0203
[2], metabolite supplement: Thymidine | 0.0126
[3], metabolite supplement: Formate | 0.00214
[3], metabolite supplement: Hypoxanthine | 0.012
[3], metabolite supplement: Hypoxanthine + Formate | 0.0129
[4], metabolite supplement: Adenine | 0.031
[4], metabolite supplement: Adenosine | 0.0345
[4], metabolite supplement: Guanosine | 0.0198
[4], metabolite supplement: Hypoxanthine | 0.0211 ± 0.00086
[4], metabolite supplement: Hypoxanthine + AICAr 10 µM | 0.0181
[4], metabolite supplement: Hypoxanthine + AICAr 30 µM | 0.0219
[4], metabolite supplement: Hypoxanthine + AICAr 50 µM | 0.0142
[4], metabolite supplement: Hypoxanthine + AICAr 100 µM | 0.0113
[4], metabolite supplement: Sodium Formate | 0.00674
[4], metabolite supplement: Thymidine | 0.00847 ± 0.0018
[4], metabolite supplement: Thymidine + Sodium Formate | 0.00679
[4], metabolite supplement: Vehicle | 0.00653 ± 0.00056
[6], metabolite supplement: Hypoxanthine | 0.0167
[6], metabolite supplement: Sodium Formate | 0.0106
[6], metabolite supplement: Thymidine | 0.00267 ± 0.0016
[6], metabolite supplement: Thymidine + Sodium Formate | 0.00938
[6], metabolite supplement: Vehicle | 0.00233 ± 0.0028
